Data from publication PMC10758829 (Heliyon, 2023).

Experiments:
[1] = target: dipeptidyl peptidase IV (DPP-IV) (Homo sapiens, UniProt P27487); assay: Gly-Pro-pNA chromogenic assay with recombinant enzyme; type: biochemical
[2] = tested on: NCC(=O)N1CCC[C@H]1C(=O)Nc1ccc([N+](=O)[O-])cc1; assay: purified protein; type: biochemical, Homo sapiens

Sequence of dipeptidyl peptidase IV (DPP-IV) (P27487 39-766): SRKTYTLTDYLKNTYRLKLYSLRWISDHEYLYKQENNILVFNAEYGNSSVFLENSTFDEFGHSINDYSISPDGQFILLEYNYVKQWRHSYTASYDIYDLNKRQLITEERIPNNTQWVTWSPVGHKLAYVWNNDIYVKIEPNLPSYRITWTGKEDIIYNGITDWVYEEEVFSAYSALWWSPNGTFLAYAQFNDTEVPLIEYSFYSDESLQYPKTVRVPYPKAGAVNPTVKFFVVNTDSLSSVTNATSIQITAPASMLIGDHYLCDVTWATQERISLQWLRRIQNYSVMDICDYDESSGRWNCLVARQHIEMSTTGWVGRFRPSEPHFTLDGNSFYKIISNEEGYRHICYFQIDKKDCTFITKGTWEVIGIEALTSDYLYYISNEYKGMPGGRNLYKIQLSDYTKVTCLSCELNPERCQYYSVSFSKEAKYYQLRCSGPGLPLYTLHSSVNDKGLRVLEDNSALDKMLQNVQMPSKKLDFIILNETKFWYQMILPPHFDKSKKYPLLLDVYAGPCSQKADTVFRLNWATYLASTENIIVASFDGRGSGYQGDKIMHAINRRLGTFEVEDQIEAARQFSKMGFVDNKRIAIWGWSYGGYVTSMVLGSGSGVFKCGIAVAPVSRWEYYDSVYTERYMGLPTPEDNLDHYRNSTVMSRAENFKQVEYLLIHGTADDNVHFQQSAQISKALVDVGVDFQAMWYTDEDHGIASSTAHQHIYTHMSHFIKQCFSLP

Row | Compound | IC50 [1] [µM] | Vmax [2] [µM/min]
1 | C=C(C)[C@@H]1CCC(C)=C[C@H]1c1c(O)cc(CCCCC)cc1O [CBD, cannabidiol] | 21.9 | –
2 | CCCCCc1cc(O)c(C/C=C(\C)CCC=C(C)C)c(O)c1 [CBG, cannabigerol] | 20.2 | –
3 | CCCCCc1cc(O)c2c(c1)OC(C)(C)c1ccc(C)cc1-2 [CBN, cannabinol] | 12.9 | –
4 | dipeptidyl peptidase IV (DPP-IV) (Homo sapiens) | – | 1200
